Measured values published in patent publication EP2204363A1, “New disubstituted phenylpiperidines/piperazines as modulators of dopamine neurotransmission” (NSAB, Filial af NeuroSearch Sweden AB, Sverige, priority 2004, dated 2005).
Like-named read-outs stand apart in the source and are kept apart here.

What was measured:
[1] = Activity of compounds of Formula 1 (test not specified)
[2] = system: DOPAC (3,4-dihydroxyphenylacetic acid) in the rat striatum; assay: In vivo neurochemistry: increase of DOPAC in the rat striatum; conditions: for ED50: read-out: ED50 DOPAC
Source text: After the behavioural activity sessions, the rats were decapitated and their brains rapidly taken out and put on an ice-cold petri-dish. The limbic forebrain, the striatum, the frontal cortex and the remaining hemispheral parts of each rat were dissected and frozen. Each brain part was subsequently analyzed with respect to its content of monoamines and their metabolites.
The monoamine transmitter substances (NA (noradrenaline), DA (dopamine), 5-HT (serotonin)) as well as their amine (NM (normethanephrine), 3-MT (3-methoxytyramine)) and acid (DOPAC (3,4-dihydroxyphenylacetic acid), 5-HIAA (5-hydroxyindoleacetic acid), HVA (homovanillic acid)) metabolites are quantified in brain tissue homogenates by HPLC separations and electrochemical detection
The analytical method is based on two chromatographic separations dedicated for amines or acids. Two chromatographic systems share a common auto injector with a 10-port valve and two sample loops for simultaneous injection on the two systems. Both systems are equipped with a reverse phase column (Luna C18(2), dp […], 50*2mm i.d., Phenomenex) and electrochemical detection is accomplished at two potentials on glassy carbon electrodes (MF-1000, Bioanalytical Systems, Inc.). The column effluent is passed via a T-connection to the detection cell or to a waste outlet. This is accomplished by two solenoid valves, which block either the waste or detector outlet. By preventing the chromatographic front from reaching the detector, better detection conditions are achieved. […] Detection potentials relative to Ag/AgCl reference are 0.45 and 0.60V. […] Detection potentials relative to Ag/AgCl reference are 0.45 and 0.65V.
ED50 values for the increase of DOPAC in striatum are calculated by curve fitting.

[3] = Metabolic stability in rat liver microsomes; format: in vitro ADME; conditions: pH 7.4, 37 °C, NADPH, fraction of test compound eliminated after 15 minutes, read-out: turnover at 15 minutes
Method: The protein precipitation was then removed by rejecting the pellet after centrifugation at 10.000 g for 10 minutes (Heraeus, Biofuge fresco) in 4°C. The test compound was analysed using HPLC-MS (Hewlett-Packard 1100MSD Series) with a Zorbax SB-C18 column (2.1*150 mm, 5 µm) using 0.03% formic acid and acetonitrile as mobile phase (gradient) or a Zorbax Eclipse XDB-C18 (3*75 mm, 3.5µm) using 0.03% acetic acid and acetonitrile as mobile phase (gradient).

drug-naive rats = assay: In vivo behaviour: locomotor activity in drug-naive rats; conditions: ± SEM
Source text: (§1) Photobeam sensors were spaced 2.5 cm apart.

MK-801 pre-treated rats = assay: In vivo behaviour: locomotor activity in MK-801 pre-treated rats; conditions: MK-801 0.7 mg/kg i.p. 90 minutes before test compound, 30 to 60 minutes after administration, ± SEM
Source text: as §1

[4] = system: levels of dopamine and norepinephrine in the cortex; assay: Microdialysis in awake and freely moving rats (cortex); format: in vivo; conditions: percent of control in relation to baseline
[5] = sc, estimated ED50 on increase of DOPAC in rat striatum after systemic administration (s.c.), maximal effects limited to 350 - 400% of control, range covers 95% of fits
[6] = drug-naive habituated rats, 11 µmol/kg, recorded between 30 and 60 minutes
[7] = drug-naive habituated rats, 33 µmol/kg, recorded between 30 and 60 minutes
[8] = drug-naive habituated rats, 100 µmol/kg, recorded between 30 and 60 minutes
[9] = drug-naive rats, 11 µmol/kg, recorded for 60 minutes
[10] = drug-naive rats, 33 µmol/kg, recorded for 60 minutes
[11] = drug-naive rats, 100 µmol/kg, recorded for 60 minutes

SMILES: CCCN1CCC(c2cccc(S(C)(=O)=O)c2C(F)(F)F)CC1 [4-[3-(methylsulfonyl)-2-(trifluoromethyl)phenyl]-1-propylpiperidine]
- activity [1]: inactive

SMILES: CCCN1CCC(c2cccc(S(C)(=O)=O)c2F)CC1 [Example 1, 4-[2-FLUORO-3-(METHYLSULFONYL)PHENYL]-1-PROPYLPIPERIDINE]
- ED50 [2, 5]: 28 µmol/kg
- metabolised at 0.25 h [3]: 3%
- Locomotor activity (drug-naive rats; [6]): 1708 ± 922 counts/30 min
- Locomotor activity (drug-naive rats; [7]): 1337 ± 141 (P=0.001) counts/30 min
- Locomotor activity (drug-naive rats; [8]): 1365 ± 460 (P=0.057) counts/30 min
- Locomotor activity (drug-naive rats; [9]): 9500 ± 617 counts/60 min
- Locomotor activity (drug-naive rats; [10]): 7371 ± 992 counts/60 min
- Locomotor activity (drug-naive rats; [11]): 8103 ± 1047 counts/60 min
- Locomotor activity, MK + example (MK-801 pre-treated rats; 33 µmol/kg): 29636 ± 10019 (P=0.08) counts/30 min

SMILES: CCN1CCC(c2cccc(S(C)(=O)=O)c2F)CC1 [Example 2, 1-ETHYL-4-[2-FLUORO-3-(METHYLSULFONYL)PHENYL]-PIPERIDINE]
- levels of dopamine and norepinephrine in the cortex ([4]; Figure 2: 50 mol/kg s.c. (so in the source), pf. cortex): elevate the levels of dopamine and norepinephrine in the cortex
- metabolised at 0.25 h [3]: 1%

SMILES: CCCN1CCC(c2cccc(S(C)(=O)=O)c2Cl)CC1 [Example 3, 4-[2-CHLORO-3-(METHYLSULFONYL)PHENYL]-1-PROPYLPIPERIDINE]
- ED50 [2, 5]: 9.9 µmol/kg
- Locomotor activity (drug-naive rats; [9]): 6078 ± 605 counts/60 min
- Locomotor activity (drug-naive rats; [10]): 3023 ± 246 counts/60 min
- Locomotor activity (drug-naive rats; [11]): 1327 ± 299 counts/60 min
- Locomotor activity, MK + example (MK-801 pre-treated rats; 100 µmol/kg (footnote 1)): 4911 ± 2953^1 (P=0.08) counts/30 min

SMILES: CCCN1CCC(c2cccc(S(C)(=O)=O)c2C)CC1 [Example 4, 4-[2-METHYL-3-(METHYLSULFONYL)PHENYL]-1-PROPYLPIPERIDINE]
- ED50 [2, 5]: 58 µmol/kg
- metabolised at 0.25 h [3]: 4%
- Locomotor activity (drug-naive rats; [9]): 8972 ± 1124 counts/60 min
- Locomotor activity (drug-naive rats; [10]): 9023 ± 1415 counts/60 min
- Locomotor activity (drug-naive rats; [11]): 4473 ± 924 counts/60 min

SMILES: CCCN1CCC(c2cccc(C(F)(F)F)c2C#N)CC1 [Example 7, 2-(1-PROPYLPIPERIDIN-4-YL)-6-(TRIFLUOROMETHYL)BENZONITRILE]
- ED50 [2, 5]: 9.7 µmol/kg
- metabolised at 0.25 h [3]: 22%
- Locomotor activity (drug-naive rats; [9]): 7008 ± 700 counts/60 min
- Locomotor activity (drug-naive rats; [10]): 4694 ± 986 counts/60 min
- Locomotor activity (drug-naive rats; [11]): 2829 ± 358 counts/60 min

SMILES: CCCN1CCC(c2cccc(C(F)(F)F)c2OC)CC1 [Example 8, 4-[2-METHOXY-3-(TRIFLUOROMETHYL)PHENYL]-1-PROPYLPIPERIDINE]
- metabolised at 0.25 h [3]: 49%

SMILES: CCCN1CCC(c2ccc(Cl)c(C(F)(F)F)c2)CC1 [Example 9 of WO01/46146, reference compound]
- ED50 ([2]; Rattus norvegicus): 40 µmol/kg

SMILES: CCCN1CCN(c2cccc(C(F)(F)F)c2F)CC1 [Example 9, 1-[2-FLUORO-3-(TRIFLUOROMETHYL)PHENYL]-4-PROPYLPIPERAZINE]
- ED50 ([2]; Rattus norvegicus, sc): 1.9 µmol/kg
- Locomotor activity (drug-naive rats; [9]): 3721 ± 242 counts/60 min
- Locomotor activity (drug-naive rats; [10]): 3518 ± 435 counts/60 min
- Locomotor activity (drug-naive rats; [11]): 4265 ± 758 counts/60 min
- Locomotor activity, MK + example (MK-801 pre-treated rats; 11 µmol/kg (footnote 2)): 5916± 1918^2 (P=0.002) counts/30 min

SMILES: COCCN1CCN(c2cccc(C(F)(F)F)c2F)CC1 [Example 10, 1-[2-FLUORO-3-(TRIFLUOROMETHYL)PHENYL]-4-(2-METHOXYETHYL)PIPERAZINE]
- ED50 ([2]; Rattus norvegicus, sc): 6.2 µmol/kg

SMILES: CCCN1CCN(c2cccc(Cl)c2Cl)CC1 [Example 11, 1-(2,3-DICHLOROPHENYL)-4-PROPYLPIPERAZINE]
- ED50 ([2]; Rattus norvegicus, sc): 3.5 µmol/kg
- Locomotor activity (drug-naive rats; [9]): 5149 ± 374 counts/60 min
- Locomotor activity (drug-naive rats; [10]): 4032 ± 828 counts/60 min
- Locomotor activity (drug-naive rats; [11]): 3299 ± 637 counts/60 min

SMILES: CCN1CCC(c2cccc(S(C)(=O)=O)c2)CC1 [Example 12 of WO01/46145, reference compound]
- ED50 [2, 5]: 154 µmol/kg

SMILES: CCCN1CCC(c2cccc(C#N)c2C(F)(F)F)CC1 [Example 13, 3-(1-PROPYLPIPERIDIN-4-YL)-2-(TRIFLUORO-METHYL)BENZONITRILE]
- Locomotor activity (drug-naive rats; [6]): 960 ± 710 counts/30 min
- Locomotor activity (drug-naive rats; [7]): 2870 ± 613 (P=0.008) counts/30 min
- Locomotor activity (drug-naive rats; [8]): 4366 ± 1389 (P=0.030) counts/30 min

SMILES: CCCN1CCN(c2cccc(C#N)c2C(F)(F)F)CC1 [Example 14, 3-(4-PROPYLP I PE RAZI N-1-YL)-2-(TRI FLUORO-M ETHYL)B ENZON ITRI LE]
- ED50 ([2]; Rattus norvegicus, sc): 2.4 µmol/kg

SMILES: CCCN1CCC(c2cccc(S(C)(=O)=O)c2C#N)CC1 [Example 15, 2-(METHYLSULFONYL)-6-(1-PROPYLPIPERIDIN-4-YL)BENZONITRILE]
- ED50 [2, 5]: 28 µmol/kg

SMILES: CCCN1CCC(c2ccc(F)c(C(F)(F)F)c2)CC1 [Example 43 of WO01/46146, reference compound]
- ED50 ([2]; estimated ED50 on increase of DOPAC in rat striatum, maximal effects set to 200% of control, range covers 95% of fits): 35 µmol/kg

SMILES: CN1CCN2c3ncccc3Cc3ccccc3C2C1 (stereo not drawn) [mirtazapine, reference compound]
- extracellullar norepinephrine and dopamine in the cortex ([4]; Figure 1: Remeron 10mg/kg s.c., cortex): increase predominantly extracellullar norepinephrine and dopamine in the cortex

SMILES: CCCN1CCC(c2cccc(C(F)(F)F)c2)CC1 [reference compound]
- ED50 DOPAC ([2]; estimated ED50 on increase of DOPAC in rat striatum after systemic administration (s.c.), maximal effects limited to 350 - 400% of control, range covers 95% of fits): 84 (47 - 110) µmol/kg
